Here are results for 34 molecules from patent publication US9951045B2, “Indazole compounds as 5-HT4 receptor agonists” (SUVEN LIFE SCIENCES LIMITED, priority 2013, dated 2018).

Counter-ions that a name gives are not always drawn.

For the test, the target named is T1, recombinant human 5-HT4 receptor (Homo sapiens, UniProt Q13639).
T1 construct: expressed in transfected cells
T1 sequence (Q13639 whole entry): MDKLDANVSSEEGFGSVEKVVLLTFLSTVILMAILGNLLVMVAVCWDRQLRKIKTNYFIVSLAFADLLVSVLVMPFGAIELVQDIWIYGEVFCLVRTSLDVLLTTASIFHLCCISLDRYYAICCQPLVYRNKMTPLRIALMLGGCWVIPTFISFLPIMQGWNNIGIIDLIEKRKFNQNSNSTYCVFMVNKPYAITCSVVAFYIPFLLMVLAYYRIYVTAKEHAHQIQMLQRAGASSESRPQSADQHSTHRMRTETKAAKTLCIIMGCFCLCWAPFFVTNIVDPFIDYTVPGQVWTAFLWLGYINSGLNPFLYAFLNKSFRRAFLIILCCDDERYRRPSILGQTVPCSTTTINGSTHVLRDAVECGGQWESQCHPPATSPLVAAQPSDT
As to the kind of experiment: Determination of EC50 values for 5-HT4 receptor (CHO cells, pCRE-Luc reporter). It counts as cell-based. To be noted: luciferase reporter, 4 hours incubation, read-out: 5-HT4 receptor agonistic binding in-vitro EC50. Here is the method: A stable CHO cell line expressing recombinant human 5-HT4 receptor and pCRE-Luc reporter system was used for cell-based assay. The assay offers a non-radioactive based approach to determine binding of a compound to GPCRs. In this specific assay, the level of intracellular cyclic AMP, which is modulated by activation, or inhibition of the receptor is measured. The recombinant cells harbor luciferase reporter gene under the control of cAMP response element.
The above cells were grown in 96 well clear bottom white plates in Hams F12 medium containing 10% fetal bovine serum (FBS). Prior to the addition of compounds or standard agonist, cells were serum starved overnight. Increasing concentrations of test compounds were added in OptiMEM medium to the cells. The incubation was continued at 37° C. in CO2 incubator for 4 hours. Medium was removed and cells were washed with phosphate buffered saline. The cells were lysed and luciferase activity was measured in a Luminometer. Luminescence units were plotted against the compound concentrations using Graphpad software. EC50 values of the compounds were defined as the concentration required in stimulating the luciferase activity by 50%.
Broadly, the EC50 is the midpoint of the concentration-response curve. As to `CC(C)N1CC2C(CNC(=O)c3cccc4cn(C(C)C)nc34)C2C1` (stereo not shown) [Example 16, N—(N-isopropyl-3-azabicyclo[3.1.0]hexane-6-ylmethyl)-2-isopropyl-2H-indazole-7-carboxamide fumarate], the EC50 is 1.1 to 5 nM.
For `CC(C)n1cc2cccc(-c3nnc(C4CCN(C5CCOCC5)CC4)o3)c2n1` [Example 39, 2-Isopropyl-7-{5-[1-(tetrahydropyran-4-yl)piperidin-4-yl]-[1,3,4]oxadiazol-2-yl}-2H-indazole fumarate], the EC50 lay within 1.1 to 5 nM.
`CCn1cc2cccc(C(=O)NCC3CCN(CCCOC)CC3)c2n1` [Example 4, N—[N-(3-methoxypropyl)piperidin-4-ylmethyl]-2-ethyl-2H-indazole-7-carboxamide fumarate]: the EC50 was no more than 1 nM.
On to `CC(C)n1cc2cccc(C(=O)NC3CCN(CC4CC4)CC3)c2n1` [Example 20, N—(N-cyclopropylmethylpiperidine-4-yl)-2-isopropyl-2H-indazole-7-carboxamide fumarate], for which the EC50 lay within 5.1 to 20 nM.
Consider `CC(C)n1cc2cccc(C(=O)NCC3(O)CCN(CC(C)(C)O)CC3)c2n1` [Example 30, N—[N-(2-hydroxy-2-methylpropyl)-4-hydroxypiperidin-4-ylmethyl]-2-isopropyl-2H-indazole-7-carboxamide oxalate], for which the EC50 lay in the range of 1.1 to 5 nM.
On to `CC(C)n1cc2cccc(C(=O)NCC3CCN(CC(C)(C)F)CC3)c2n1` [Example 34, N—[N-(2-fluoro-2-methylpropyl)piperidin-4-ylmethyl]-2-isopropyl-2H-indazole-7-carboxamide L(+) Tartarate], for which the EC50 was no more than 1 nM.
As to `CC(C)N1CCC(NC(=O)c2cccc3cn(C(C)C)nc23)CC1` [Example 19, N—(N-isopropylpiperidine-4-yl)-2-isopropyl-2H-indazole-7-carboxamide fumarate], the EC50 fell in the range of 20.1 to 50 nM.
The result for `CC(C)n1cc2cccc(C(=O)NCC3C4CN(C5CCOCC5)CC34)c2n1` (stereo not shown) [Example 12, N—[N-(tetrahydropyran-4-yl)-3-azabicyclo[3.1.0]hexane-6-ylmethyl]-2-isopropyl-2H-indazole-7-carboxamide] reads 1.1 to 5 nM; that for `CC(C)n1cc2cccc(C(=O)NCC3(F)CCN(CC(C)(C)O)CC3)c2n1` [Example 35, N—[N-(2-hydroxy-2-methylpropyl)-4-fluoropiperidin-4-ylmethyl]-2-isopropyl-2H-indazole-7-carboxamide L(+) Tartarate], 5.1 to 20 nM; that for `COCCCN1CCC(CNC(=O)c2cccc3cn(C(C)C)nc23)CC1` [Example 24, N—[N-(3-methoxypropyl)piperidin-4-ylmethyl]-2-isopropyl-2H-indazole-7-carboxamide fumarate], no more than 1 nM.
In the case of `CC(C)n1cc2cccc(C(=O)NC3CCN(CC4CCC4)CC3)c2n1` [Example 21, N—(N-cyclobutylmethylpiperidine-4-yl)-2-isopropyl-2H-indazole-7-carboxamide fumarate] it was 5.1 to 20 nM; in that of `CC(C)n1cc2cccc(C(=O)NCC3CCN(C4CCC4)CC3)c2n1` [Example 14, N—(N-cyclobutylpiperidin-4-ylmethyl)-2-isopropyl-2H-indazole-7-carboxamide fumarate], no more than 1 nM; in that of `CC(C)n1cc2cccc(C(=O)NCC3CCN(C4CCCCC4)CC3)c2n1` [Example 15, N—(N-cyclohexylpiperidin-4-ylmethyl)-2-isopropyl-2H-indazole-7-carboxamide fumarate], no more than 1 nM.
Take `CC(C)n1cc2cccc(C(=O)NCC3CN(CC4CCOCC4)CCO3)c2n1` (stereo not shown) [Example 9, N—[(N-tetrahydropyran-4-ylmethyl)morpholine-2-ylmethyl]-2-isopropyl-2H-indazole-7-carboxamide]: the EC50 lay in the range of 5.1 to 20 nM.
Take `CCn1cc2cccc(C(=O)NCC3C4CN(CCCOC)CC34)c2n1` (stereo not shown) [Example 5, N—[N-(3-methoxypropyl)-3-azabicyclo[3.1.0]hexane-6-ylmethyl]-2-ethyl-2H-indazole-7-carboxamide oxalate]: the EC50 lay within 1.1 to 5 nM.
As for `CC(C)n1cc2cccc(C(=O)NCC3(O)CCN(CC4CCOCC4)CC3)c2n1` [Example 26, N—[(N-tetrahydropyran-4-ylmethyl)-4-hydroxypiperidin-4-ylmethyl]-2-isopropyl-2H-indazole-7-carboxamide fumarate], the EC50 was 1.1 to 5 nM.
On to `CC(C)n1cc2cccc(C(=O)NCC3CCN(CC4CCOC4)CC3)c2n1` (stereo not shown) [Example 23, N—[(N-tetrahydrofuran-3-ylmethyl)piperidin-4-ylmethyl]-2-isopropyl-2H-indazole-7-carboxamide], for which the EC50 is no more than 1 nM.
The result for `CC(C)n1cc2cccc(C(=O)NCC3CCN(CCC(C)(C)O)CC3)c2n1` [Example 29, N—[N-(3-Hydroxy-3-methylbutyl)piperidin-4-ylmethyl]-2-isopropyl-2H-indazole-7-carboxamide] reads no more than 1 nM.
In the case of `CC(C)n1cc2cccc(C(=O)NCC3CCN(CC4(O)CCCC4)CC3)c2n1` [Example 11, N—[N-(1-hydroxycyclopentylmethyl)piperidin-4-ylmethyl]-2-isopropyl-2H-indazole-7-carboxamide L(+) tartarate] it was no more than 1 nM.
As to `CC(C)n1cc2cccc(C(=O)NCC3CN(Cc4ccccc4)CCO3)c2n1` (stereo not shown) [Example 8, N—[N-benzylmorpholin-2-ylmethyl]-2-isopropyl-2H-indazole-7-carboxamide fumarate], the EC50 was 20.1 to 50 nM.
The result for `COC(C)(C)CN1CCC(CNC(=O)c2cccc3cn(C(C)C)nc23)CC1` [Example 33, N—[N-(2-Methoxy-2-methylpropyl)piperidin-4-ylmethyl]-2-isopropyl-2H-indazole-7-carboxamide] reads no more than 1 nM.
In the case of `CC(C)N1CCC(CNC(=O)c2cccc3cn(C(C)C)nc23)CC1` [Example 13, N—(N-isopropylpiperidin-4-ylmethyl)-2-isopropyl-2H-indazole-7-carboxamide fumarate] it was no more than 1 nM.
Regarding `CC(C)n1cc2cccc(C(=O)NCC3CCN(CCF)CC3)c2n1` [Example 7, N—[N-(2-fluoroethyl)piperidin-4-ylmethyl]-2-isopropyl-2H-indazole-7-carboxamide], the EC50 lay within 5.1 to 20 nM.
In the case of `COCCCN1CCC(O)(CNC(=O)c2cccc3cn(C(C)C)nc23)CC1` [Example 28, N—[N-(3-methoxypropyl)-4-hydroxypiperidin-4-ylmethyl]-2-isopropyl-2H-indazole-7-carboxamide fumarate], the EC50 was 1.1 to 5 nM.
`CC(C)n1cc2cccc(C(=O)NCC3C4CN(CC(C)(C)O)CC34)c2n1` (stereo not drawn) [Example 36, N—[N-(2-hydroxy-2-methylpropyl)-3-azabicyclo[3.1.0]hexane-6-ylmethyl]-2-isopropyl-2H-indazole-7-carboxamide L(+) Tartarate]: the EC50 is 5.1 to 20 nM.
For `CC(C)n1cc2cccc(C(=O)NCC3(O)CCN(C4CCOCC4)CC3)c2n1` [Example 27, N—[(N-tetrahydropyran-4-yl)-4-hydroxypiperidin-4-ylmethyl]-2-isopropyl-2H-indazole-7-carboxamide fumarate], the EC50 lay in the range of 1.1 to 5 nM.
The result for `COCCN1CCC(CNC(=O)c2cccc3cn(C(C)C)nc23)CC1` [Example 25, N—[N-(2-methoxyethyl)piperidin-4-ylmethyl]-2-isopropyl-2H-indazole-7-carboxamide fumarate] reads 1.1 to 5 nM.
On to `CC(C)n1cc2cccc(C(=O)NCC3CCN(CC(C)(C)CO)CC3)c2n1` [Example 6, N—[N-(3-hydroxy-2,2-dimethylpropyl)piperidin-4-ylmethyl]-2-isopropyl-2H-indazole-7-carboxamide L(+) Tartarate], for which the EC50 was no more than 1 nM.
In the case of `COCCCN1CCC(c2nnc(-c3cccc4cn(C(C)C)nc34)o2)CC1` [Example 37, 2-isopropyl-7-{5-[1-(3-methoxypropyl)piperidin-4-yl]-[1,3,4]oxadiazol-2-yl)}-2H-indazole fumarate], the EC50 was 5.1 to 20 nM.
Take `CC(C)n1cc2cccc(C(=O)NCC3(F)CCN(CC4CCOCC4)CC3)c2n1` [Example 22, N—[(N-tetrahydropyran-4-ylmethyl)-4-fluoropiperidin-4-ylmethyl]-2-isopropyl-2H-indazole-7-carboxamide]: the EC50 was in the range of 1.1 to 5 nM.
The result for `CC(C)n1cc2cccc(-c3nnc(C4CCN(CC5CCOCC5)CC4)o3)c2n1` [Example 38, 2-Isopropyl-7-{5-[1-(tetrahydropyran-4-ylmethyl)piperidin-4-yl]-[1,3,4]oxadiazol-2-yl}-2H-indazole fumarate] reads 5.1 to 20 nM; that for `CCn1cc2cccc(C(=O)NCC3C4CN(C5CCOCC5)CC34)c2n1` (stereo not shown) [Example 18, N—[N-(tetrahydropyran-4-yl)-3-azabicyclo[3.1.0]hexane-6-ylmethyl]-2-ethyl-2H-indazole-7-carboxamide oxalate], 5.1 to 20 nM; that for `CC(C)n1cc2cccc(C(=O)NCC3C4CN(CC5CCOCC5)CC34)c2n1` (stereo not shown) [Example 10, N—[N-(tetrahydropyran-4-ylmethyl)-3-azabicyclo[3.1.0]hexane-6-ylmethyl]-2-isopropyl-2H-indazole-7-carboxamide], 1.1 to 5 nM.
As to `CC(C)n1cc2cccc(C(=O)NCC3CCN(CC4(O)CCOCC4)CC3)c2n1` [Example 17, N—[N-(4-hydroxytetrahydropyran-4-ylmethyl)piperidin-4-ylmethyl]-2-isopropyl-2H-indazole-7-carboxamide fumarate], the EC50 is no more than 1 nM.
